{"source": "patent US12697319B2", "about": "“Methods for inhibiting the progression of neurodegenerative diseases” (BioJiva LLC, priority 2021, dated 2026)", "key": {"murine fibroblasts": {"tested_on": "murine fibroblasts", "details": "fold vs D2-AA; erastin-treated murine fibroblasts", "quoted_text": "In this example, two different pools of cells were each seeded in 48-well plates and treated with 50 micromolar of erastin.\nAfterwards, cell viability was measured by plate dilution assay to distinguish between cells that are alive and those that are dead on a Petri dish."}, "[1]": {"assay": "Concentration of D2-LA and D2-AA in RBCs of the same single patient (Example 1)", "details": "extrapolated from the 3 and 6 month values", "from_the_text": "This example determines the relative concentration of D2-AA in the CSF and in RBCs in order to determine a correlation between these two concentrations. Specifically, a patient was continuously provided with a daily dose of 9 grams of D2-LA ethyl ester (which is 8.64 grams of active discounting for impurities and removal of the ethyl ester) over about a six-month period. […] In all cases, the D2-AA was obtained by deacylation of the ethyl ester of linoleic acid in the gastrointestinal tract followed by conversion of D2-LA in vivo to D2-AA."}, "[2]": {"details": "for Concentration of D2-AA in the RBCs, high: highest of cohort; for Concentration of D2-AA in the RBCs, low: lowest of cohort", "procedure": "In this example, children suffering from INAD were treated with a daily dose of 3.9 grams of D2-LA ethyl ester followed by 2.9 grams of D2-LA ethyl ester. Given the age and weight of these children, such is assumed to be substantially equivalent to a loading dose of from about 7 and about 12 grams per day for an adult patient for an adult patient and a maintenance dose which is less than the loading dose again for an adult patient.\nThis example also determines the concentration of D2-AA in RBCs. Specifically, a cohort of 14 children was provided with a daily dose of 3.9 grams of D2-LA ethyl ester for 1 month followed by 2.9 grams of D2-LA ethyl ester for the remaining six-month period. Blood samples were taken at 3 months for all but 1 child and at 6 months for all children. The concentration of D2-AA in RBCs was measured."}, "patients with ALS": {"tested_on": "patients with ALS", "assay": "ALSFRS-R functional decline in cohort of 3 ALS patients on primer plus maintenance dosing of D2-LA ethyl ester (Example 3)", "type": "in vivo, human", "details": "about 9 grams daily for at least 30 days then 5 grams, natural history 21", "procedure": "As set forth in the examples below, the rate of functional decline is predicated on measuring an individual's, or a cohort's, average for the natural history of disease progression. Next, the individual or cohort average for the functional decline is determined at a period of time such as at 3, 6 or 12 months after initiation of therapy. The rate of decline based on the average of the natural history of the cohort is set as the denominator. The numerator is set as the delta between the rate of the natural history of disease progression and the rate of functional decline after a set period of treatment per this invention. The resulting fraction is the multiplied by 100 to give a percent change. The following exemplifies this analysis. […]\nThe functionality of each of the patients was evaluated periodically using the ALSFRS-R protocol. […] Before initiation of therapy, the natural history of each patient in the cohort was determined and an average annual rate of functional decline was measured at 21.\nThe annualized progression of the disease, as measured by an average annual rate of functional decline for all three patients starting at the time that dosing began and terminating at the end of the dosing regimen and then annualized as described above, was measured as 2.1. […]"}}, "note": "Like-named read-outs stand apart in the source and are kept apart here."}
{"smiles": "[2H]C([2H])(/C=C\\CCCCC)/C=C\\C([2H])([2H])/C=C\\C([2H])([2H])/C=C\\CCCC(=O)O", "values": [{"measurement": "Level of protection against LPO induced cell death relative to 13,13-D2-arachidonic acid", "setting": "murine fibroblasts", "result": "approximately twice"}]}
{"smiles": "[2H]C([2H])(/C=C\\C/C=C\\C/C=C\\CCCC(=O)O)/C=C\\CCCCC", "note": "[D2-AA, 13,13-D2-Arachidonic Acid]", "values": [{"measurement": "Amount of D2-AA at 1 month in RBCs (estimated by linear extrapolation, FIG. 1)", "setting": "[1]", "result": "about 3%"}, {"measurement": "Concentration of D2-AA in the RBCs, high", "setting": "[2]; 3 months", "result": 16.8, "unit": "%"}, {"measurement": "Concentration of D2-AA in the RBCs, low", "setting": "[2]; 3 months", "result": 6.8, "unit": "%"}, {"measurement": "Concentration of D2-AA in the RBCs, high", "setting": "[2]; 6 months", "result": 26.1, "unit": "%"}, {"measurement": "Concentration of D2-AA in the RBCs, low", "setting": "[2]; 6 months", "result": 12.0, "unit": "%"}]}
{"smiles": "[2H]C([2H])(/C=C\\CCCCC)/C=C\\CCCCCCCC(=O)OCC", "note": "[D2-LA ethyl ester, 11,11-D2-linoleic acid ethyl ester]", "values": [{"measurement": "Average annual rate of functional decline during dosing (ALSFRS-R), annualized", "setting": "patients with ALS", "result": 2.1}]}
